# Source: ChEMBL document CHEMBL6103604, “Novel Bicyclic Amines as CDK2 Inhibitors for Treating Metastatic Breast Cancer or Metastatic Lung Cancer” (ACS Med Chem Lett, 2025)
# Target: Cyclin-dependent kinase 2/cyclin E1 (Homo sapiens, UniProt P24941)
# Assay: Inhibition of N-terminal GST-tagged wild-type full-length human CDK2 (1 to 298 residues)/FLAG-tagged human Cyclin E1 (1 to 410 residues) extracted from baculovirus infected Sf21 cells using ULight-labeled eIF4E-binding protein-1 as substrate incubated for 60 mins in the presence of ATP by HTRF assay
row,IC50 [nM],Compound
1,≤ 10,C[C@@H](Oc1c(-c2cn[nH]c2)ccn2nc(NC3CCOCC3)nc12)C(F)F
2,≤ 10,C[C@@H](Oc1c(-c2cn[nH]c2)ccn2nc(NC3CCOCC3)nc12)C(F)(F)F
3,≤ 10,CC(C)Oc1c(-c2cn[nH]c2)ccn2nc(NC3CCOCC3)nc12
4,≤ 10,CC(C)Oc1c(-c2cn[nH]c2)ncn2nc(NC3CCOCC3)nc12
5,≤ 10,C[C@@H](Oc1c(-c2cn[nH]c2)ncn2nc(NC3CCOCC3)nc12)C(F)F
6,≤ 10,C[C@@H](Oc1c(-c2cn[nH]c2)ncn2nc(NC3CCOCC3)nc12)C(F)(F)F
